PubChem BioAssay AID212 (DTP/NCI, 2004)
Several values for one entry are separate records, joined by “and”; a condition that tells them apart may be missing. Equal values may be shown once. Records with an inconclusive call do not appear.

Test system: BDF1 mice, colon carcinoma 38 sc, T/C %
Assay: NCI In Vivo Anticancer Drug Screen. Data for tumor model Colon Carcinoma 38 (subcutaneous) in B6D2F1 (BDF1) mice
Conditions: higher = larger tumour
How it was run: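 Ratio of survival or tumor size, compound-treated animals relative to vehicle controls, in tumor-bearing mice.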

[1] = endpoint: median tumor weight (est.), dose: 3.12 mg/kg/injection, schedule: Q07DX002 (ip), vehicle: saline with Tween-80
[2] = endpoint: median tumor weight (est.), dose: 12.5 mg/kg/injection, schedule: Q07DX002 (ip), vehicle: saline
[3] = endpoint: median tumor weight (est.), dose: 12.5 mg/kg/injection, schedule: Q07DX002 (ip), vehicle: saline with Tween-80
[4] = endpoint: median tumor weight (est.), dose: 25.0 mg/kg/injection, schedule: Q07DX002 (ip), vehicle: saline with Tween-80
[5] = endpoint: median tumor weight (est.), dose: 50.0 mg/kg/injection, schedule: Q07DX002 (ip), vehicle: saline with Tween-80
[6] = endpoint: median tumor weight (est.), dose: 200.0 mg/kg/injection, schedule: Q07DX002 (ip), vehicle: Klucel (hydroxypropylcellulose) (HPC)
[7] = endpoint: median tumor weight (est.), dose: 400.0 mg/kg/injection, schedule: Q07DX002 (ip), vehicle: Klucel (hydroxypropylcellulose) (HPC)

## Cc1c(CNc2ccc(C(=O)NC(CC(=O)O)C(=O)O)cc2)ccc2nc(N)nc(N)c12 (configuration not stated)
endpoint: median tumor weight (est.), dose: 1.56 mg/kg/injection, schedule: Q07DX002 (ip), vehicle: saline with Tween-80
  T/C: 86 % of control
endpoint: median tumor weight (est.), dose: 1.56 mg/kg/injection, schedule: Q07DX002 (ip), vehicle: saline
  T/C: 122 % of control
[1]
  T/C: 87 % of control
endpoint: median tumor weight (est.), dose: 3.12 mg/kg/injection, schedule: Q07DX002 (ip), vehicle: saline
  T/C: 96 % of control
endpoint: median tumor weight (est.), dose: 6.25 mg/kg/injection, schedule: Q07DX002 (ip), vehicle: saline with Tween-80
  T/C: 35 % of control
endpoint: median tumor weight (est.), dose: 6.25 mg/kg/injection, schedule: Q07DX002 (ip), vehicle: saline
  T/C: 48 % of control
[2]
  T/C: 32 % of control

## CN=C(N)N/N=C(\C)c1ccc2c(c1)Cc1ccccc1-2
[3]
  T/C: 95 % of control and 98 % of control
[4]
  T/C: 63 % of control and 85 % of control
[5]
  T/C: 83 % of control and 86 % of control
endpoint: median tumor weight (est.), dose: 100.0 mg/kg/injection, schedule: Q07DX002 (ip), vehicle: saline with Tween-80
  T/C: 81 % of control and 93 % of control

## CCc1ccc(C2=C(O)C(=O)C(c3ccc(CC)cc3)=C(O)C2=O)cc1
[1]
  T/C: 51 % of control
[3]
  T/C: 124 % of control
[4]
  T/C: 96 % of control
[5]
  T/C: 81 % of control

## COC1CC(NC(=O)N(CCCl)N=O)C(O)C(CO)O1 (configuration not stated)
endpoint: median tumor weight change, dose: 10.0 mg/kg/injection, schedule: Q04DX003 (oral), vehicle: saline
  T/C: 5 % of control

## C[C@@H]1C(=O)C[C@H]2C(C)(C)CCC[C@]2(C)[C@@]1(O)CCc1ccoc1
endpoint: median tumor weight (est.), dose: 50.0 mg/kg/injection, schedule: Q07DX002 (ip), vehicle: Klucel (hydroxypropylcellulose) (HPC)
  T/C: 74 % of control
[6]
  T/C: 84 % of control
[7]
  T/C: 67 % of control

## C[C@@H]1C[C@H]2[C@@H]3CCC4=CC(=O)C=C[C@]4(C)[C@@]3(F)[C@@H](O)C[C@]2(C)[C@@]1(O)C(=O)CO
endpoint: median tumor weight (est.), dose: 6.25 mg/kg/injection, schedule: Q07DX002 (ip), vehicle: Klucel (hydroxypropylcellulose) (HPC)
  T/C: 156 % of control
[6]
  T/C: 53 % of control and 58 % of control
[7]
  T/C: 25 % of control

## Nc1ncnc2c(C3OC(CO)C(O)C3O)[nH]nc12 (configuration not stated)
endpoint: median tumor weight (est.), dose: 15.0 mg/kg/injection, schedule: Q07DX002 (ip), vehicle: suspension in saline
  T/C: 193 % of control
endpoint: median tumor weight (est.), dose: 30.0 mg/kg/injection, schedule: Q07DX002 (ip), vehicle: suspension in saline
  T/C: 201 % of control
endpoint: median tumor weight (est.), dose: 60.0 mg/kg/injection, schedule: Q07DX002 (ip), vehicle: suspension in saline
  T/C: 168 % of control
endpoint: median tumor weight (est.), dose: 120.0 mg/kg/injection, schedule: Q07DX002 (ip), vehicle: suspension in saline
  T/C: 150 % of control

## Cn1cnc([N+](=O)[O-])c1SCC(=O)O
[2]
  T/C: 65 % of control
endpoint: median tumor weight (est.), dose: 25.0 mg/kg/injection, schedule: Q07DX002 (ip), vehicle: saline
  T/C: 62 % of control
endpoint: median tumor weight (est.), dose: 50.0 mg/kg/injection, schedule: Q07DX002 (ip), vehicle: saline
  T/C: 67 % of control
endpoint: median tumor weight (est.), dose: 100.0 mg/kg/injection, schedule: Q07DX002 (ip), vehicle: saline
  T/C: 99 % of control
endpoint: median tumor weight (est.), dose: 112.5 mg/kg/injection, schedule: Q07DX002 (ip), vehicle: saline
  T/C: 111 % of control
endpoint: median tumor weight (est.), dose: 200.0 mg/kg/injection, schedule: Q07DX002 (ip), vehicle: saline
  T/C: 94 % of control
endpoint: median tumor weight (est.), dose: 225.0 mg/kg/injection, schedule: Q07DX002 (ip), vehicle: saline
  T/C: 85 % of control
endpoint: median tumor weight (est.), dose: 400.0 mg/kg/injection, schedule: Q07DX002 (ip), vehicle: saline
  T/C: 100 % of control
endpoint: median tumor weight (est.), dose: 450.0 mg/kg/injection, schedule: Q07DX002 (ip), vehicle: saline
  T/C: 163 % of control
endpoint: median tumor weight (est.), dose: 900.0 mg/kg/injection, schedule: Q07DX002 (ip), vehicle: saline
  T/C: 59 % of control
endpoint: median tumor weight (est.), dose: 1800.0 mg/kg/injection, schedule: Q07DX002 (ip), vehicle: saline
  T/C: 101 % of control

## CC1OC1C(=O)C1(O)C(C)C(O)C23OC2(C(O)c2c(O)cccc2C3=O)C1O (configuration not stated)
endpoint: median tumor weight (est.), dose: 2.0 mg/kg/injection, schedule: Q07DX002 (ip), vehicle: Klucel (hydroxypropylcellulose) (HPC)
  T/C: 95 % of control and 101 % of control
endpoint: median tumor weight (est.), dose: 4.0 mg/kg/injection, schedule: Q07DX002 (ip), vehicle: Klucel (hydroxypropylcellulose) (HPC)
  T/C: 77 % of control and 91 % of control
endpoint: median tumor weight (est.), dose: 8.0 mg/kg/injection, schedule: Q07DX002 (ip), vehicle: Klucel (hydroxypropylcellulose) (HPC)
  T/C: 95 % of control and 102 % of control
endpoint: median tumor weight (est.), dose: 32.0 mg/kg/injection, schedule: Q07DX002 (ip), vehicle: Klucel (hydroxypropylcellulose) (HPC)
  T/C: 98 % of control
endpoint: median tumor weight (est.), dose: 64.0 mg/kg/injection, schedule: Q07DX002 (ip), vehicle: Klucel (hydroxypropylcellulose) (HPC)
  T/C: 124 % of control
